Data taken from patent publication US11339130B1 (Blade Therapeutics, Inc., priority 2016, dated 2022).
pIC50: −log10 of the molar value. Where two headings read alike, the source gives them in different places.

How the values were obtained:
Human Calpain 1/NS1 = molecular target: T1, Human Calpain 1/NS1 (Homo sapiens, UniProt P07384); experiment: Calpain inhibition continuous fluorescence (FRET) assay, Human Calpain 1/NS1; format: biochemical; conditions: read-out: Human Calpain 1/NS1 IC50
T1 sequence (P07384 1-714): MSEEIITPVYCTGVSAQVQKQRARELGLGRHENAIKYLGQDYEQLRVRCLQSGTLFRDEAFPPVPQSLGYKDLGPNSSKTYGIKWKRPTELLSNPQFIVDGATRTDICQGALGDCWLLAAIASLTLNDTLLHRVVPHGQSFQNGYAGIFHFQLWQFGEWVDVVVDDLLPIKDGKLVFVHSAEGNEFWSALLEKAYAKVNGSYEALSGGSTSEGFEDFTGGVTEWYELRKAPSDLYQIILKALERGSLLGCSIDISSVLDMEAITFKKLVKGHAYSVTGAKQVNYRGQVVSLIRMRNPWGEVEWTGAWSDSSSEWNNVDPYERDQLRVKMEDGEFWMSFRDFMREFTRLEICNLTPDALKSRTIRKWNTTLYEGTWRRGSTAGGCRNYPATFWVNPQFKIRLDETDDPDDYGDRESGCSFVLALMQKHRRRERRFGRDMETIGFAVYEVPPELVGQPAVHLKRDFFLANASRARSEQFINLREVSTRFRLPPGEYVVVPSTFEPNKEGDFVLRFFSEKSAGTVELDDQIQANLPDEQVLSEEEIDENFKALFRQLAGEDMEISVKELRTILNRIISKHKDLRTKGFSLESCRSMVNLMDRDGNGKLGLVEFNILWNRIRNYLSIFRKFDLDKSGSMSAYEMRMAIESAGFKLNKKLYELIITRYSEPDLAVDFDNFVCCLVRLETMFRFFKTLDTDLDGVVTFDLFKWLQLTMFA
T1 sequence (P04632 1-268 partner): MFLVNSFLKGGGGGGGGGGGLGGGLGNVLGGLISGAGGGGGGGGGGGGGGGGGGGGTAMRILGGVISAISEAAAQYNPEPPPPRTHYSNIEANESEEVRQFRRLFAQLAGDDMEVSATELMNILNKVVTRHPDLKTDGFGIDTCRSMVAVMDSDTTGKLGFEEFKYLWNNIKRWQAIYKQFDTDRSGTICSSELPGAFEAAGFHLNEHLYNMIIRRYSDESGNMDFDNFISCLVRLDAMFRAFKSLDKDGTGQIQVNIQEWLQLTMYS
In short: (§1)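 Buffer 50 mM Tris pH 7.5/100 mM NaCl/1 mM DTT; enzyme + cpd preinc 25C; start w/ FRET substrate + CaCl2; kinetic 490/520 nm, 10 min; slopes 1-5 min; 4-PL IC50.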

Human Calpain 2/NS1 = molecular target: T2, Human Calpain 2/NS1 (Homo sapiens, UniProt P17655); experiment: Calpain inhibition continuous fluorescence (FRET) assay, Human Calpain 2/NS1; format: biochemical; conditions: read-out: Human Calpain 2/NS1 IC50
T2 sequence (P17655 1-700): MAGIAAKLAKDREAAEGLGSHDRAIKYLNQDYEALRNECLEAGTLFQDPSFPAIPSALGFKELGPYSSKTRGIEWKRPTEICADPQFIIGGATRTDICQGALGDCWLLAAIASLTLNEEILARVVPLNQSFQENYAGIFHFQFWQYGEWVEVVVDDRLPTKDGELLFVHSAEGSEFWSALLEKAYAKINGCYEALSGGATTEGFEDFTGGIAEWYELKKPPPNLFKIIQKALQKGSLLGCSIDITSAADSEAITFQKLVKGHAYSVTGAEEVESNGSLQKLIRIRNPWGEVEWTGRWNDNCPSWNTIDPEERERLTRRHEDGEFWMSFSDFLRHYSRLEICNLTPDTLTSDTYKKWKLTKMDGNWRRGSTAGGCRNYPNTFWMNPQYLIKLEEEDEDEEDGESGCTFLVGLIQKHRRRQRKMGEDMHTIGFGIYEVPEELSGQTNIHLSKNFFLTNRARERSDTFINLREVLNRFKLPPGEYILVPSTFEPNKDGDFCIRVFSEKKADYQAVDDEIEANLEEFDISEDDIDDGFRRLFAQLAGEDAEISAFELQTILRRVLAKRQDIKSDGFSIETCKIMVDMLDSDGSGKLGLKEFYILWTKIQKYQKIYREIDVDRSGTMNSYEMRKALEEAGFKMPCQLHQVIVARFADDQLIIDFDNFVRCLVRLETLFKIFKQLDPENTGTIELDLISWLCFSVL
T2 sequence (P04632 1-268 partner): T1 sequence (P04632 1-268 partner)
In short: as §1

Human Calpain 9/NS1 = molecular target: T3, Human Calpain 9/NS1 (Homo sapiens, UniProt O14815); experiment: Calpain inhibition continuous fluorescence (FRET) assay, Human Calpain 9/NS1; format: biochemical; conditions: read-out: Human Calpain 9/NS1 IC50
T3 sequence (O14815 1-690): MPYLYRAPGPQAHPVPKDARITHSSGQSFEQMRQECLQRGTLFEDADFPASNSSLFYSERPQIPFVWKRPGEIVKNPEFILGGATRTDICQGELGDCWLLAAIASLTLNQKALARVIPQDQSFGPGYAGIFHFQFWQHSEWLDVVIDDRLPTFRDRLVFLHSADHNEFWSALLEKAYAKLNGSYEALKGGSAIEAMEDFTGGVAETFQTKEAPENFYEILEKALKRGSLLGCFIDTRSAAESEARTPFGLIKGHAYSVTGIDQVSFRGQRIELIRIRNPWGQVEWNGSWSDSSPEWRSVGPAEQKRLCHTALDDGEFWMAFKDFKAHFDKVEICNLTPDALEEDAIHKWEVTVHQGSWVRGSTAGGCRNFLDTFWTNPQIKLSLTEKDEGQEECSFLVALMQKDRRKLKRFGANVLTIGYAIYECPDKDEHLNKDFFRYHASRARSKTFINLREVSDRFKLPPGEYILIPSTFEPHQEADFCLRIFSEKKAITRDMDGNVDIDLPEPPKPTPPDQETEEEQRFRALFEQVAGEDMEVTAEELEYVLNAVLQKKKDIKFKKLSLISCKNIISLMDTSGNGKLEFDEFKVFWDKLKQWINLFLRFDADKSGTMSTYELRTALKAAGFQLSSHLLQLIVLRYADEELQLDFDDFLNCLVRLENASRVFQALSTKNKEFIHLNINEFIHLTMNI
T3 sequence (P04632 1-268 partner): T1 sequence (P04632 1-268 partner)
In short: as §1

[1] = system: Calpain activity in SH-SY5Y cells (SBDP-150); experiment: SH-SY5Y Spectrin western blot assay (SBDP-150 breakdown product, A23187-induced); format: cell-based; conditions: Homo sapiens, SH-SY5Y cells, read-out: SH-SY5Y Spectrin IC50
[2] = system: Calpain activity in SH-SY5Y cells; experiment: SH-SY5Y + AMC fluorescence assay (Suc-LLVY-AMC substrate); format: cell-based; conditions: read-out: SH-SY5Y + AMC IC50
[3] = Column D, A23187-induced SBDP-150
[4] = A23187-induced SBDP-150, western blot

Molecule	pIC50 (Human Calpain 1/NS1; Column A)	pIC50 (Human Calpain 2/NS1; Column B)	pIC50 (Human Calpain 9/NS1; Column C)	pIC50 [1, 3]	pIC50 (Human Calpain 1/NS1)	pIC50 (Human Calpain 2/NS1)	pIC50 (Human Calpain 9/NS1)	pIC50 [1, 4]	pIC50 [2]	pIC50 ([2]; Column E)
O=C[C@H](Cc1ccccc1)NC(=O)c1ccnn1-c1ccccc1 [Compound 2, (S)—N-(1-oxo-3-phenylpropan-2-yl)-1-phenyl-1H-pyrazole-5-carboxamide]	> 5.52	> 5.52	> 5.52	4.60 to 5.00	–	–	–	–	–	–
Cc1cc(C(=O)N[C@@H](Cc2ccccc2)C(=O)C(N)=O)n(-c2nc3ccccc3s2)n1 [Compound 13, (S)—N-(4-amino-3,4-dioxo-1-phenylbutan-2-yl)-1-(benzo[D]thiazol-2-yl)-3-methyl-1H-pyrazole-5-carboxamide]	> 5.52	> 5.52	> 5.52	< 4.60	–	–	–	–	–	–
Cc1cc(C(=O)N[C@@H](Cc2ccccc2)C(=O)C(N)=O)n(-c2cccc(CNC(=O)c3ccccc3)c2)n1 [Compound 141, (S)—N-(4-amino-3,4-dioxo-1-phenylbutan-2-yl)-1-(3-(benzamidomethyl)phenyl)-3-methyl-1H-pyrazole-5-carboxamide]	> 5.52	> 5.52	> 5.52	4.60 to 5.00	–	–	–	–	–	–
Cc1cc(C(=O)N[C@@H](Cc2ccccc2)C(=O)C(N)=O)n(-c2ccc(CNC(=O)CCc3ccccc3)cc2)n1 [Compound 155, (S)—N-(4-amino-3,4-dioxo-1-phenylbutan-2-yl)-3-methyl-1-(4-((3-phenylpropanamido)methyl)phenyl)-1H-pyrazole-5-carboxamide]	> 5.52	> 5.52	> 5.52	< 4.60	–	–	–	–	–	–
NC(=O)C(=O)[C@H](Cc1ccccc1)NC(=O)c1nccn1-c1ccccc1 [Compound 221, (S)—N-(4-amino-3,4-dioxo-1-phenylbutan-2-yl)-1-phenyl-1H-imidazole-2-carboxamide]	> 5.52	> 5.52	> 5.52	< 4.60	–	–	–	–	–	–
Cc1cccc2sc(-n3nc(C(=O)N[C@@H](Cc4ccccc4)C(=O)C(N)=O)cc3C)nc12 [Compound 299, (S)—N-(4-amino-3,4-dioxo-1-phenylbutan-2-yl)-5-methyl-1-(4-methylbenzo[d]thiazol-2-yl)-1H-pyrazole-3-carboxamide]	> 5.52	> 5.52	> 5.52	4.60 to 5.00	–	–	–	–	–	–
Cn1cc(C(=O)N[C@@H](Cc2ccccc2)C(=O)C(=O)NCCNC(=O)OC(C)(C)C)c(-c2ccccc2)n1 [Compound 340, Tert-butyl (S)-(2-(3-(1-methyl-3-phenyl-1H-pyrazole-4-carboxamido)-2-oxo-4-phenylbutanamido)ethyl)carbamate]	–	–	–	–	> 5.52	> 5.52	> 5.52	< 4.60	–	–
Cc1cc(C(=O)N[C@@H](Cc2ccccc2)C(=O)C(N)=O)n(-c2cccc(CNC(=O)OCc3ccccc3)c2)n1 [Compound 343, Benzyl (S)-(3-(5-((4-amino-3,4-dioxo-1-phenylbutan-2-yl)carbamoyl)-3-methyl-1H-pyrazol-1-yl)benzyl)carbamate]	–	–	–	–	> 5.52	> 5.52	> 5.52	4.60 to 5.00	–	–
Cc1cc(C(=O)NC(Cc2ccccc2)C(=O)C(N)=O)n(-c2ncccc2C)n1 (stereo not shown) [Compound 345, N-(4-amino-3,4-dioxo-1-phenylbutan-2-yl)-3-methyl-1-(3-methylpyridin-2-yl)-1H-pyrazole-5-carboxamide]	–	–	–	–	< 5.00	< 5.00	< 5.00	< 4.60	–	–
Cc1cccnc1-n1nc(C(=O)NC(Cc2ccccc2)C(=O)C(N)=O)cc1C (stereo not shown) [Compound 346, N-(4-amino-3,4-dioxo-1-phenylbutan-2-yl)-5-methyl-1-(3-methylpyridin-2-yl)-1H-pyrazole-3-carboxamide]	–	–	–	–	< 5.00	5.00 to 5.52	5.00 to 5.52	< 4.60	–	–
NC(=O)C(=O)C(Cc1ccccc1)NC(=O)c1nsnc1Cl (stereo not shown) [Compound 364, N-(4-amino-3,4-dioxo-1-phenylbutan-2-yl)-4-chloro-1,2,5-thiadiazole-3-carboxamide]	–	–	–	–	> 5.52	> 5.52	> 5.52	4.60 to 5.00	–	–
O=C(NC1CC1)C(=O)C(Cc1ccccc1)NC(=O)c1nsnc1-c1ccccc1 (stereo not shown) [Compound 462, N-(4-(cyclopropylamino)-3,4-dioxo-1-phenylbutan-2-yl)-4-phenyl-1,2,5-thiadiazole-3-carboxamide]	–	–	–	–	> 5.52	> 5.52	> 5.52	4.60 to 5.00	–	–
Cn1cc(C(=O)NC(Cc2ccccc2)C(=O)C(N)=O)c(-c2ccsc2)n1 (stereo not shown) [Compound 503, N-(4-amino-3,4-dioxo-1-phenylbutan-2-yl)-1-methyl-3-(thiophen-3-yl)-1H-pyrazole-4-carboxamide]	–	–	–	–	> 5.52	> 5.52	> 5.52	–	4.60 to 5.00	–
COc1ccccc1-c1nn(C)cc1C(=O)NC(Cc1ccccc1)C(=O)C(N)=O (stereo not shown) [Compound 511, N-(4-amino-3,4-dioxo-1-phenylbutan-2-yl)-3-(2-methoxyphenyl)-1-methyl-1H-pyrazole-4-carboxamide]	–	–	–	–	> 5.52	> 5.52	> 5.52	–	< 4.60	–
Cn1cc(C(=O)NC(C=O)c2ccccc2C(F)(F)F)c(-c2ccccc2F)n1 (stereo not shown) [Compound 519, 3-(2-Fluorophenyl)-1-METHYL-N-(2-oxo-1-(2-(trifluoromethyl)phenyl)ethyl)-1H-pyrazole-4-carboxamide]	–	–	–	–	< 5.00	< 5.00	< 5.00	–	< 4.60	–
(S)—N-(4-amino-3,4-dioxo-1-phenylbutan-2-yl)-1-methyl-3-(pyrimidin-4-yl)-1H-pyrazole-4-carboxamide [Compound 193]	5.00 to 5.52	> 5.52	5.00 to 5.52	–	–	–	–	–	–	< 4.60
